Results reported in patent US20150164899A1, “INHIBITION OF ADAPTOR ASSOCIATED KINASE 1 FOR THE TREATMENT OF PAIN” (priority 2012, published 2015).
Where two headings read alike, the source gives them in different places.

Assays:
[1] = biological target: T1, AAK1 (full-length human protein) (Homo sapiens, UniProt Q2M2I8); assay: P81 filter plate assay; type: biochemical
T1 construct: NP_055726.2
Protocol: Compounds were serially diluted into a Labcyte LDV plate (Labcyte, cat# LP-0200) using a Mutiprobe (PerkinElmer) and Biomek FX (Beckman Coulter) so that the highest compound concentration was at 96 μM. Compounds were then pinged (75 nL per well) into a Greiner 384-well reaction plate (Greiner, #781076) using an ECHO 550 Liquid Handler (Labcyte). A total of 12 μl reaction buffer (IMAP buffer containing Tween and DTT, from Molecular Devices) was then added to each well of columns 1 and 13 for the negative controls and 12 μl of 2×AAK1 (0.2 nM full-length human protein, NCBI accession no. NP_055726.2) was added to the remaining wells. Enzyme was then pre-incubated with compound for 10 minutes at RT. Reactions were initiated upon Minitrak (PerkinElmer) addition of 12 μl substrate mix containing 2× Mu2 (0.2 μM, full length human protein), 2× cold ATP (2 μM), and 1.3 μCi of hot ^33P-ATP. Reactions proceeded for one hour at RT. Meanwhile, Millipore 384-well P81 filter plates (Millipore, catalog # MZPHN0W10) were placed on a plate washer (Zoom Z W, from Titertek) and pre-wet with 50 μl 1% phosphoric acid. Kinase reactions were then stopped upon addition of 24 μl of 2% phosphoric acid to each well and the Minitrak was then used to transfer 40 μl from each well into the pre-wet Millipore 384-well P81 filter plates. Reaction mixtures were incubated for 10 minutes at RT in the P81 plates, followed by washing five times with 100 μl/well of 1% phosphoric acid using the Zoom filter washer. The bottom of each filter plate was sealed followed by addition of 20 μl Microscint 40 to each well, sealing the top of the plates with Flashplate cover, and then waiting one hour until reading on the TopCount (PerkinElmer).

[2] = biological target: T2, AAK1 (full length human) in transfected HEK293F cells (Homo sapiens, UniProt Q2M2I8); assay: HEK281 cell-based assay (phospho-mu2 Western blot); conditions: HEK281 cell-based assay, read-out: CBA IC50
T2 construct: expressed in transfected cells; host or cells: HEK293F
T2 sequence (Q2M2I8 1-863 isoform Q2M2I8-2): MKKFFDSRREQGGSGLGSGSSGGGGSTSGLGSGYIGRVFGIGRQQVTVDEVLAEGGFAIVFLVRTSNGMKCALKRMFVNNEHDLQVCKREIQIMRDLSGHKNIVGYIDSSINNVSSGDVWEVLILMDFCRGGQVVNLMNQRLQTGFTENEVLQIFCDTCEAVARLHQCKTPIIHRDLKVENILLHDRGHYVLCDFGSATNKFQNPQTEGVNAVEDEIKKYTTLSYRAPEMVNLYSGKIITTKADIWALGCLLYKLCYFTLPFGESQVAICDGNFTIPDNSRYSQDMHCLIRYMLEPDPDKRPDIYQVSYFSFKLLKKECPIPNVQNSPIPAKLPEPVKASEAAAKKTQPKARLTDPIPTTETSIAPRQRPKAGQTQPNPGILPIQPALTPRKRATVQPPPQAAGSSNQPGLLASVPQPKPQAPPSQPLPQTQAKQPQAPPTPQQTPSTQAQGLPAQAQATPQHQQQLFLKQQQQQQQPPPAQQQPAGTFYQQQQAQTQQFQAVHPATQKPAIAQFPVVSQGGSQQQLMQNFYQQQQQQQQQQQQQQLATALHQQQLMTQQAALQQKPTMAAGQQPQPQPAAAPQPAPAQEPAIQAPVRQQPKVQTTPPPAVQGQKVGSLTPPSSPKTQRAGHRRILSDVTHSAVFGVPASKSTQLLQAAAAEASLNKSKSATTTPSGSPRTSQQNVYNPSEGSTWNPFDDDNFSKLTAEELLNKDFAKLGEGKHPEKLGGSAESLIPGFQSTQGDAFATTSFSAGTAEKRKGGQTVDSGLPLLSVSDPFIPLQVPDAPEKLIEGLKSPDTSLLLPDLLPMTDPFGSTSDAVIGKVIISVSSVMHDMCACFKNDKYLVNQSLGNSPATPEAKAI
Protocol: HEK293F cells were cultured in media containing DMEM (Gibco, cat. #11965), 10% FBS (SAFC Biosciences, cat. #12103C), 1×GPS (glutamine, penicillin and streptomycin). On day one, cells were plated on a 10 cm dish so that they are ˜80% confluent at time of transfection. Roughly 12 million cells were in a 10 cm dish at time of transfection. On day two, each dish was transfected with 48 ug DNA and 144 ul Lipofectamine 2000 (Invitrogen, cat.#11668-019). The DNA was comprised of a mixture (per 10 cm dish) containing 3 ug AAK1/HA/pIRES (full length human, NCBI accession no. NP_055726.2), 45 μg Flag/AP2MI/pcDNA (full length human), and 1.5 ml OPTI-MEM. The Lipofectamine 2000 is made up of a mixture (per 10 cm dish) containing 144 μl Lipofectamine 2000 and 1.5 ml OPTI-MEM. Each mixture was transferred to individual 15 ml tubes and incubated at RT for 5 minutes, and then the two mixes were combined and incubated at RT for 20 minutes. Growth media was then aspirated from each 10 cm plate and replaced with 10 ml of DMEM+10% FBS (no GPS). Finally, 3 ml DNA/Lipofectamine mix was added to each 10 cm dish and mix gently followed by incubate of plate overnight at 37° C. and 5% CO2.
On day three, compounds were diluted in 100% DMSO at 1000× final concentration, followed by 3-fold serial dilutions for a total of 5 concentrations tested. Four compounds were tested per 10 cm dish. One ul of each compound dilution was then pipetted into a deep-well, 96-well plate, followed by addition of 500 μl DMEM+0.5% FBS into each well for a 2× final concentration of each compound. Cells were resuspended in a 10 cm dish by simple pipetting (HEK293 cells come off the plate that easy at this point) and then transferred to a 50 ml conical tube and pelleted by centrifugation at 1000 rpm for 5 min. Cell pellets were then resuspended in 2.75 ml DMEM+0.5% FBS per 10 cm dish and 100 μl of cell suspension transferred into each well of 96-well TC plate. Finally, 100 μl of 2× compound diluted in DMEM+0.5% FBS was then added into wells containing cell suspension for a 1× final concentration. Plates were then incubated at 37° C. and 5% CO2 for 3 hours followed by transferring of cell suspensions from each well into 12-tube PCR strips. The PCR strips were spun in a tip rack at 1000 rpm for 5 minutes to pellet cells and media was then removed by pipetting without disturbing the cell pellet.
To prepare for Western Blot analysis, cell pellets were resuspend in 40 ul 1×LDS-PAGE sample buffer (Invitrogen, cat.# NP0008)+2× Halt phophatase and protease inhibitor cocktail (Thermo Scientific, cat.#1861284), followed by sonicating each with microtip sonicator set at 5 for 8-10 seconds. Five ul of 10× NuPage Sample Reducing Agent (with […]) was to each sample followed by heat denaturing at 70 C. for 10 min on PCR machine. A total of 10 μl per sample was loaded into each lane of a 4-20% Tris-Glycine Criterion 26-well gel (Biorad, cat.#345-0034) for the phospho-mu2 blot and 10 μl per lane in a 4-12% Bis-Tris (+MES buffer) NuPAGE 26-well gel (Invitrogen, cat.# WG1403BX10) for the mu2 blot. For controls, 2 ng of phospho-mu2 or 20 ng mu2/Flag proteins were loaded in the last well of each gel. After SDS-PAGE, samples on each gel were transferred to PVDF membrane using an iBlot and membranes were blocked for one hour in TBST+5% milk, followed by wash 3× for 5-10 min with TBST. Criterion gels were probed with rabbit anti-phospho-mu2 (1:5000; a rabbit polyclonal antibody produced by New England Peptide and affinity purified at Lexicon) in TBST+5% BSA, whereas, NuPAGE gels were probed with mouse anti-Flag (1:500; Sigma, cat.# F1804) in TBST+5% milk, and these primary antibodies were incubated overnight at 4° C. on a rocker.

[3] = pyrazolo[1,5-a]pyrimidine-based inhibitors
[4] = Table 1 imidazo[1,2-b]pyridazines

T1 sequence (Q2M2I8 1-863 isoform Q2M2I8-2): as above

| IC50 [1, 3] [nM] | IC50 [2, 3] [nM] | also measured | Compound |
| --- | --- | --- | --- |
| ≤ 10 | ≤ 10 |  | COc1ncccc1-c1cnn2ccc(N3CCN(C(=O)OCCF)CC3)nc12 |
| ≤ 10 |  |  | COCCOC(=O)N1CCN(c2ccn3ncc(-c4ccccc4OC)c3n2)CC1 |
| ≤ 10 | ≤ 100 |  | COc1ncccc1-c1cnn2ccc(NCCCC(F)(F)F)nc12 |
| ≤ 10 | ≤ 100 |  | FC(F)(F)CN1CCCC1CNc1ccn2ncc(Br)c2n1 (stereo not drawn) |
| ≤ 100 |  |  | COc1ncccc1-c1cnn2ccc(N3CCN(S(=O)(=O)CC(C)C)CC3)nc12 |
| ≤ 1000 |  |  | COc1ncccc1-c1cnn2ccc(N(CCCC(F)(F)F)C(C)=O)nc12 |
| ≤ 10 | ≤ 100 |  | CCOc1ccccc1-c1cnn2ccc(NC[C@@H]3CCC(=O)N3CCC(C)(C)C)nc12 |
| ≤ 10 | ≤ 10 |  | COc1ccccc1-c1cnn2ccc(NC[C@@H]3CCC(=O)N3CCC(C)(C)C)nc12 |
|  |  | IC50 [1, 4]: ≤ 10 nM; IC50 [2, 4]: ≤ 1000 nM | COc1ccccc1-c1cnc2ccc(NC[C@@H]3CCC(=O)N3CCC(C)(C)C)nn12 |
| ≤ 10 | ≤ 100 |  | COc1ncccc1-c1cnn2ccc(NC[C@@H]3CCC(=O)N3CCC(C)(C)C)nc12 |
| ≤ 10 |  |  | CC(C)(C)CCN1C(=O)CC[C@H]1CNc1ccn2ncc(-c3ccccc3)c2n1 |
| ≤ 100 |  |  | CN(C(=O)CC1CC1)[C@H]1CCN(c2ccn3ncc(-c4ccccn4)c3n2)C1 |
| ≤ 100 |  |  | COc1ccccc1-c1cnn2ccc(N3CC[C@H](N(C)C(=O)CC(F)(F)F)C3)nc12 |
|  |  | IC50 [1, 4]: ≤ 100 nM; IC50 [2, 4]: ≤ 1000 nM | CN(C(=O)CC(C)(C)C)[C@H]1CCN(c2ccc3ncc(-c4cccnc4O)n3n2)C1 |
| ≤ 100 |  |  | CN(C(=O)CC(F)(F)F)[C@H]1CCN(c2ccn3ncc(Br)c3n2)C1 |
| ≤ 100 |  |  | CN(C(=O)N1CCCC1)[C@H]1CCN(c2ccn3ncc(Br)c3n2)C1 |
|  |  | IC50 [1, 4]: ≤ 100 nM | CN(C(=O)N1CCCC1)[C@H]1CCN(c2ccc3ncc(-c4ccccn4)n3n2)C1 |
| ≤ 1000 |  |  | CCCC(=O)N(C)[C@H]1CCN(c2ccn3ncc(-c4ccccn4)c3n2)C1 |
| ≤ 100 |  |  | COc1ccccc1-c1cnn2ccc(N3CC[C@H](N(C)C(=O)OC(C)C)C3)nc12 |
| ≤ 100 |  |  | CC(C)OC(=O)N(C)[C@H]1CCN(c2ccn3ncc(-c4ccncc4)c3n2)C1 |
| ≤ 10 | ≤ 100 |  | Cc1cc(-c2cnn3ccc(N4CC[C@H](N(C)C(=O)OC(C)(C)C)C4)nc23)ccn1 |
| ≤ 10 | ≤ 10 |  | COc1ncccc1-c1cnn2ccc(N3CCN(C(=O)OC4CCCC4)CC3)nc12 |
| ≤ 10 | ≤ 10 |  | CCOC(=O)N1CCN(c2ccn3ncc(-c4cccnc4OCC)c3n2)CC1 |
| ≤ 10 | ≤ 100 |  | CCOC(=O)N1CCN(c2ccn3ncc(-c4cccnc4OC)c3n2)CC1 |

| IC50 [1, 3] [nM] | IC50 [2, 3] [nM] | also measured | Compound |
| --- | --- | --- | --- |
| ≤ 100 |  |  | CCOC(=O)c1cnn2ccc(N3CCN(C(=O)OC(C)C)CC3)nc12 |
| ≤ 100 |  |  | CC(C)Cn1cc(-c2cnn3ccc(N4CCN(C(=O)OC(C)C)CC4)nc23)cn1 |
| ≤ 100 |  |  | Cc1nn(C)c(C)c1-c1cnn2ccc(N3CCN(C(=O)OC(C)C)CC3)nc12 |
| ≤ 100 | ≤ 1000 |  | CC(C)OC(=O)N1CCN(c2ccn3ncc(-c4cccnc4Cl)c3n2)CC1 |
| ≤ 10 | ≤ 100 |  | CC(C)OC(=O)N1CCN(c2ccn3ncc(-c4cccnc4O)c3n2)CC1 |
| ≤ 10 | ≤ 100 |  | CC(C)OC(=O)N1CCN(c2ccn3ncc(-c4cccnc4OC(C)C)c3n2)CC1 |
| ≤ 10 | ≤ 10 |  | COc1ncccc1-c1cnn2ccc(N3CCN(C(=O)OC(C)C)CC3=O)nc12 |
| ≤ 10 | ≤ 10 |  | COc1ncccc1-c1cnn2ccc(C3=CCN(C(=O)OC(C)C)CC3)nc12 |
| ≤ 100 |  |  | COc1ncccc1-c1cnn2ccc(N3CCN(C(=O)OC(C)C)C(C)(C)C3)nc12 |
| ≤ 10 | ≤ 10 |  | COc1ccc(-c2cnn3ccc(N4CCN(C(=O)OC(C)C)CC4)nc23)c(OC)n1 |
| ≤ 10 |  |  | CCOc1cccc(-c2cnn3ccc(N4CCN(C(=O)OC(C)C)CC4)nc23)c1 |
| ≤ 100 |  |  | CC(C)OC(=O)N1CCN(c2ccn3ncc(-c4cnccc4F)c3n2)CC1 |
| ≤ 10 |  |  | COc1ccnc(-c2cnn3ccc(N4CCN(C(=O)OC(C)C)CC4)nc23)c1 |
| ≤ 100 |  |  | CCNC(=O)c1cnn2ccc(N3CCN(C(=O)OC(C)C)CC3)nc12 |
| ≤ 1000 |  |  | CC(C)NC(=O)c1cnn2ccc(N3CCN(C(=O)OC(C)C)CC3)nc12 |
| ≤ 100 |  |  | CNC(=O)c1cnn2ccc(N3CCN(C(=O)OC(C)C)CC3)nc12 |
| ≤ 100 |  |  | CC(C)OC(=O)N1CCN(c2ccn3ncc(-c4cnccn4)c3n2)CC1 |
| ≤ 10 |  |  | CC(C)OC(=O)N1CCN(c2ccn3ncc(-c4cccnc4)c3n2)CC1 |
| ≤ 100 |  |  | CC(C)OC(=O)N1CCN(c2ccn3ncc(-c4cncnc4)c3n2)CC1 |
| ≤ 100 |  |  | CC(C)OC(=O)N1CCN(c2ccn3ncc(C(C)C)c3n2)CC1 |
| ≤ 10 |  |  | CC(C)OC(=O)N1CCN(c2ccn3nccc3n2)CC1 |
| ≤ 100 |  |  | COc1ncccc1-c1cnn2ccc(N3CC(N(C)C(=O)OC(C)C)C3)nc12 |
| ≤ 100 |  |  | CC(C)(C)OC(=O)N1CC=C(c2ccn3nccc3n2)CC1 |
| ≤ 1000 |  |  | COc1ncccc1-c1cnn2ccc(N3CC(N(C)C(=O)OC(C)(C)C)C3)nc12 |
